Source: US10011571B2, “Preparation method for aromatic heterocyclic compound used as selective JAK3 and/or JAK1 kinase inhibitor and application of aromatic heterocyclic compound” (SHENZHEN CHIPSCREEN BIOSCIENCES, LTD., priority 2014, dated 2018)

Columns and labels:
JAK1 = JAK1 (Homo sapiens (Human), UniProt P23458); experiment: Z'-LYTE enzymatic activity detection, JAK1; format: biochemical; details: test compound 300 nM; for inhibition at 0.3 µM: read-out: JAK1 % inhibitory rate @300 nM
Method: (§1) The basic principle of in vitro enzymatic activity assay is based on the difference between the intensities of fluorescence signals generated at different wavelengths (445 nm and 520 nm) from the phosphorylated substrate and non-phosphorylated substrate, in which the specific fluorescence-labeled substrate is phosphorylated by the kinase. When different test compounds are added, the inhibition of kinase activity is represented as the different degrees of substrate phosphorylation, and thus as the different intensities of fluorescence signal, based on which the inhibitory activity of the compound on the kinase can be calculated. Basic detection principle is illustrated in FIG. 1.
(§2) In an enzymatic inhibitory activity detection, GST-labeled human recombinant JAK kinases, including JAK1/PV4774, JAK2/PV4210, JAK3/PV3855, TYK2/PV4790 and their corresponding specific substrates, including Tyr6 (Z′-LYTE® Kinase Assay Kit-Tyrosine 6 Peptide, JAK1/PV4122), Tyr4 (Z′-LYTE® Kinase Assay Kit-Tyrosine 4 Peptide, JAK2/PV3193), Tyr4 (Z′-LYTE® Kinase Assay Kit-Tyrosine 4 Peptide, JAK3/PV3193), Tyr3 (Z′-LYTE® Kinase Assay Kit-[…], TYK2/PV3192) are used. In all tests, development reagent A (PV3297) was used as the test agent. All materials mentioned above were purchased from Invitrogen.
(§3) (1) Preparation: kinase reaction buffer (working solution) is prepared according to the instruction; a concentration gradient of the test compound is prepared by dilution using the kinase reaction buffer (the highest compound concentration is 10 μM for JAK1, JAK2, and TYK2 detection, and 1 μM for JAK3 detection, respectively).
(§4) (2) 10 μl of reaction system, comprising 2.5 μL test compound, 5 μL kinase reaction buffer and 2.5 μL ATP solution (provided by the kit), is mixed and reaction is performed at room temperature for 1 h.
(§5) (3) Controls, including a solvent control without the test compound, a negative control without ATP and a positive control with the phosphorylated substrate, are tested together with the detection. All tests are carried out in triplicate.
(§6) (4) After the enzymatic reaction, 5 μL pre-formulated development buffer is added, and reaction is performed at room temperature for 1 h. Subsequently, the reaction is terminated by adding 5 μL stop buffer.
(§7) (5) The fluorescence signal in each well is detected by an Ascent Fluoroskan FL reader (Thermo Labsystems) at an excitation wavelength of 400 nm, and emission wavelengths of 445 nm and 520 nm. The proportion of substrate phosphorylation is obtained by reference to the fluorescence signal intensity C445/F520.
(§8) (6) The enzymatic inhibitory rate of the test compound can be calculated based on the following equation: Inhibitory rate (%)=1−the proportion of substrate phosphorylation in the detection well/the proportion of substrate phosphorylation in the solvent control well. The half-inhibitory concentration (IC50) can be calculated using an IC50 calculator based on the inhibitory rates of phosphorylation for the test compounds at different concentration gradients.
(§9) Based on the above method, the compounds described herein are enzymatically evaluated in vitro for JAKs (the concentration of the test compound is 30 nM for JAK3 and JAK2 test, and 300 nM for JAK1 test) using Xeljanz (tofacitinib citrate) as the positive control.

JAK3 = JAK3 (Homo sapiens (Human), UniProt P52333); experiment: Z'-LYTE enzymatic activity detection, JAK3; format: biochemical; details: test compound 30 nM; for inhibition at 0.03 µM: read-out: JAK3 % inhibitory rate @30 nM
Method: as §1, §2, §3, §4, §5, §6, §7, §8, §9

HeLa cells = experiment: Cell growth activity assay (MTS), HeLa cell model; format: cell-based, human; set-up: activity: dose or concentration left out as unconfirmed; details: Homo sapiens, HeLa, 72 h, read-out: HeLa % growth rate
Description: (§10) MTS assay is a routine method for cell toxicity detection. The basic principle is based on the capacity of dehydrogenase in the mitochondria of living cells to reduce a novel yellow […] MTS to formazan, so that the amount of living cells is proportional to the amount of formazan product by detecting the absorbance at 490 nm (OD), thereby speculating the amount of living cells according to the OD value, and understanding the capacity of the test compound to inhibit the growth of cells or to kill the cells.
HeLa cell is a human cervical cancer cell line, and belongs to epithelial tumor cell line; HUVEC is a human umbilical vein endothelial cell, and belongs to primary endothelial cell; both types of cells express all subtypes except for JAK3.
The change of JAK kinase activity has no significant influence on other cell types except for the immune cells, and both cell models mentioned above are mainly used to evaluate whether there are any other kinase targets besides JAK kinases or there are nonselective cell toxicities.
In this experiment, a cultured cell model is incubated with the test compounds at different concentrations for a specific duration. The effect of the treatment by the test compound on the growth of cells is detected using MTS assay.
(§11) MTS is performed according to routine procedure in a 96-well plate.
(§12) The model cells are inoculated into each well of the 96-well plate at an appropriate concentration (about 5000 cells/well). After 24 h, the test compounds are added at different concentration gradients (the highest final concentration is 40 μM). A solvent control (DMSO) and a negative control are also performed at the same time. Each experiment is repeated for 3 times. The cells are detected after cultured for another 72 h.
After all culture medium is aspirated out of the well, 100 μL fresh medium and 20 μL pre-formulated mixture of MTS and PMS (in a ratio of 20:1) are added to each well. After incubation at 37° C. for 2 h, it is then detected by a microplate reader (490 nm).
The cell growth inhibitory rate and GI50 of the test compound are calculated as above.
Based on the above method, cytological evaluation is performed to the compounds described herein (for the detection of CTLL-2 cell, the concentration of the test compound is 300 nM; […]).

CTLL-2 cells = experiment: Cell growth activity assay (MTS), CTLL-2 cell model; format: cell-based, mouse; details: Mus musculus, CTLL-2, 300 nM, 24 h, read-out: CTLL-2 % growth rate @300 nM
Description: as §10
In this experiment, mouse T-cell line CTLL-2 was used. The proliferation and growth of this cell line strongly depend on IL-2, and it is commonly used to evaluate the active titer of exogenous IL-2. By inhibiting the activity of kinase JAK1/3, the proliferation of CTLL-2 can be inhibited under in vitro culture. The activation and proliferation of T-cell is also important pathological characteristics for various immunological diseases. Thus, this model is also pathologically related.
By comparing the change of absorbance generated by the cells treated by the test compounds using MTS assay, the growth inhibitory activity of the test compounds on the model cells can be realized, and thereby potential inhibitory activity of the compounds on JAK1/3 pathway can be evaluated.
as §11
as §12, with “20,000” for “5000”, “highest” for “highest final”, “of 10” for “is 40”, “24” for “72”
CTLL-2 is a suspended cell. After incubation, 20 μL pre-formulated mixture of MTS and PMS (in a ratio of 20:1) is directly added to each well. After incubation at 37° C. for 2 h, it is then detected by a microplate reader (490 nm).
The effect of the test compound on cell growth is calculated by comparing the change of OD values between the test well and the solvent control well, after subtracting the background of the negative control. For the test compounds at different concentration gradients, the inhibitory rates on the growth of model cells and their half-growth inhibitory concentrations (GI50) are each calculated.
Based on the above method, cytological evaluation is performed to the compounds described herein (for the detection of CTLL-2 cell, the concentration of the test compound is 300 nM; for the detection of HeLa and HUVEC cell, the concentration of the test compound is […]).

JAK2 = JAK2 (Homo sapiens (Human), UniProt O60674); experiment: Z'-LYTE enzymatic activity detection, JAK2; format: biochemical; details: test compound 30 nM; read-out: JAK2 % inhibitory rate @30 nM
Method: as §1, §2, §3, §4, §5, §6, §7, §8, §9

JAK3, sequence (P52333 whole entry): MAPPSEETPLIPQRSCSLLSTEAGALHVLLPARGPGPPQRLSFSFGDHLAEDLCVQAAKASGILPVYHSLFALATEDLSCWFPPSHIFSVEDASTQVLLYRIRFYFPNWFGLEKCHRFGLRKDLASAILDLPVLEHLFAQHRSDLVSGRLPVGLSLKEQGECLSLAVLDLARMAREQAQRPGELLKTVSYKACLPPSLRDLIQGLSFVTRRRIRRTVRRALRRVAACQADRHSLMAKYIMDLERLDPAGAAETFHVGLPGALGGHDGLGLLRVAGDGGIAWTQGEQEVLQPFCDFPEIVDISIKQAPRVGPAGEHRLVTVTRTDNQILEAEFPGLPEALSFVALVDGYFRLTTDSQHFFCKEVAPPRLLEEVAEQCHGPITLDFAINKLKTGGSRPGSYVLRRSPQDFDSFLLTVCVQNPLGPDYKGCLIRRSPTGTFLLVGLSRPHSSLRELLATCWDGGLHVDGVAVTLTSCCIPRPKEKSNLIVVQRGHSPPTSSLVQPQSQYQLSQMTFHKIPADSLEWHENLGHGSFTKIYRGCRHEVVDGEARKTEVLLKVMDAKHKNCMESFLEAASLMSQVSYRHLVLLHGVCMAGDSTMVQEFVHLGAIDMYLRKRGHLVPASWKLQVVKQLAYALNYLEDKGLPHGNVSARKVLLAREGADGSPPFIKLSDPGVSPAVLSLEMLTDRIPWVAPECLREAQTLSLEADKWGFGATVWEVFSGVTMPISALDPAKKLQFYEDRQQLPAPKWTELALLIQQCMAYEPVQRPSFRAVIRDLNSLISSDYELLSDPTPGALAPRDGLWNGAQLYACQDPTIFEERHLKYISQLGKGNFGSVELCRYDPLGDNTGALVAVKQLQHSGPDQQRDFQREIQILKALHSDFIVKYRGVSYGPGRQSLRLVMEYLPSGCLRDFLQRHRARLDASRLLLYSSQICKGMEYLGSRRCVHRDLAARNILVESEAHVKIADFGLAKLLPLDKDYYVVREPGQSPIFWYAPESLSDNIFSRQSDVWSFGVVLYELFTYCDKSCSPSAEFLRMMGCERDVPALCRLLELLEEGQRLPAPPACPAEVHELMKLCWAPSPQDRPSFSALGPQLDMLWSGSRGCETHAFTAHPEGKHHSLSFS
JAK1, sequence (P23458 whole entry): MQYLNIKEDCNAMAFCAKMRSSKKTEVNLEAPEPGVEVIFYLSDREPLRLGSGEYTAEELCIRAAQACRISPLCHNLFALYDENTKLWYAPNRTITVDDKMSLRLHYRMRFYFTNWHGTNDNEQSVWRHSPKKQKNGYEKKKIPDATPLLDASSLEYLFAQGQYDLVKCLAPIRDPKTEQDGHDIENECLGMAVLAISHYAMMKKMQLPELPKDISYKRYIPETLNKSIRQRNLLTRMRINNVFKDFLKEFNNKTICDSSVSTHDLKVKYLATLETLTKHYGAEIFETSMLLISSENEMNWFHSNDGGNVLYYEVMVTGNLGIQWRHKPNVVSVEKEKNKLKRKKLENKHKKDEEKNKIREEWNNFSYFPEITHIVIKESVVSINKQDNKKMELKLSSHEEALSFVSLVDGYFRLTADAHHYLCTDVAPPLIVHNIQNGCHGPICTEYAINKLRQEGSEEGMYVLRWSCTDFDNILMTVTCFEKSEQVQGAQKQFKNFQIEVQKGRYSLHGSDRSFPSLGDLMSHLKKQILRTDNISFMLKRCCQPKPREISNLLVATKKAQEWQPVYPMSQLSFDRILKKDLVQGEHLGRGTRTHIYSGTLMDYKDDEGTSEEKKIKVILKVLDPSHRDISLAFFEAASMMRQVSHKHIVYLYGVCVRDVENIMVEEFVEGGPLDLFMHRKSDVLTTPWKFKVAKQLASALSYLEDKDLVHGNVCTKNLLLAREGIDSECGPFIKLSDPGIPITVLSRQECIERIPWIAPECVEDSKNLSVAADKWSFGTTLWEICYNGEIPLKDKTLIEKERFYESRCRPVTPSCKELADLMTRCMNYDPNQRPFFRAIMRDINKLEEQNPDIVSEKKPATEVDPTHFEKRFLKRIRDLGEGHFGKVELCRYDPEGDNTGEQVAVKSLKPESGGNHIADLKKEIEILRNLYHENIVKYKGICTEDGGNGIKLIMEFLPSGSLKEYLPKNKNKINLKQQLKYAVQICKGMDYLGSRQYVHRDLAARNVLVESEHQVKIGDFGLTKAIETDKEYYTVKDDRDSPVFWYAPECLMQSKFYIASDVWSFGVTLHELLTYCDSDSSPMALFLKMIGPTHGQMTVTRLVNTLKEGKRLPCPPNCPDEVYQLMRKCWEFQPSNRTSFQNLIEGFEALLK
JAK2, sequence (O60674 whole entry): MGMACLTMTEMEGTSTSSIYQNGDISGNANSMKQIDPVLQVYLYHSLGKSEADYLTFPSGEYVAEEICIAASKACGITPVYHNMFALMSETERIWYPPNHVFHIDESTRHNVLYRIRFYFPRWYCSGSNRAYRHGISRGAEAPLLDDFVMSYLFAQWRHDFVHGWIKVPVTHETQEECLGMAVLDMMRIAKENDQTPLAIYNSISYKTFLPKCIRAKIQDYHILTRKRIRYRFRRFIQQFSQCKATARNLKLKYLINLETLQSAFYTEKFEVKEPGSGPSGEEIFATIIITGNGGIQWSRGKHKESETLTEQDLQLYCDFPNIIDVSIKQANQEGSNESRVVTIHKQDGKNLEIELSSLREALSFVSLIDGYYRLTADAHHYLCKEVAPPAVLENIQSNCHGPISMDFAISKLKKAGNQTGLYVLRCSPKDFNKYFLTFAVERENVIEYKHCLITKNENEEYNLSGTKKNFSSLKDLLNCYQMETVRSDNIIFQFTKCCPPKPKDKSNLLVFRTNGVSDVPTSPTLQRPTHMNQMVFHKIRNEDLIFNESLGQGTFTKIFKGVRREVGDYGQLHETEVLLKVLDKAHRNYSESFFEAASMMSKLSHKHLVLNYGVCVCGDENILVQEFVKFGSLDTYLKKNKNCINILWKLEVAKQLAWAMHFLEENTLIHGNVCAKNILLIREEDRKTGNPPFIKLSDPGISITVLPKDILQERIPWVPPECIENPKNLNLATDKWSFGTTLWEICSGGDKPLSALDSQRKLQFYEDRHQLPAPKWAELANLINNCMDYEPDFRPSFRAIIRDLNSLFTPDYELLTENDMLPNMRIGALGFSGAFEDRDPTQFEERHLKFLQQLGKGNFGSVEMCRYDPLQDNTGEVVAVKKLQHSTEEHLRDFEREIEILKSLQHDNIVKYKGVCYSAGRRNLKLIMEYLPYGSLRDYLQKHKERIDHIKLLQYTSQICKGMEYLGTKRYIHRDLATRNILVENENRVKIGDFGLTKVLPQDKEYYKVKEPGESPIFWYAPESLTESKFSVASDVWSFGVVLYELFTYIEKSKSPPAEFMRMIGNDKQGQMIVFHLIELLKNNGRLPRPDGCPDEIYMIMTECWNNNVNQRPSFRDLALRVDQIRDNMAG

SMILES | JAK1 RV (ratio between the inhibitory rate of the test compound and that of Xeljanz) (JAK1) | inhibition at 0.3 µM (JAK1) [%] | JAK3 RV (ratio between the inhibitory rate of the test compound and that of Xeljanz) (JAK3) | inhibition at 0.03 µM (JAK3) [%] | activity (HeLa cells) [%] | activity at 0.3 µM (CTLL-2 cells) [%] | inhibition at 0.03 µM (JAK2) [%]
C=CC(=O)Nc1cc(Nc2ncc(Cl)c(NCCCNC(=O)c3ccc(C(F)(F)F)cc3)n2)ccc1F [Example 13, N-(3-(2-(3-acrylamido-4-fluoro-phenylamino)-5-chloropyrimidinyl-4-amino)propyl)-4-trifluoromethylbenzamide] | 0.40 | 35 | 0.96 | 79 | 1 | 63 | 0
C=CC(=O)N(C)c1cc(Nc2ncc(Cl)c(NCCCNC(=O)c3c(F)cc(F)cc3F)n2)ccc1F [Example 36, N-(3-(5-chloro-2-(4-fluoro-3-(N-methylacrylamido)phenylamino)pyrimidinyl-4-amino)propyl)-2,4,6-trifluorobenzamide] | 0.25 | 42 | 0.53 | 104 | 38 | 32 | 0
C=CC(=O)N(C)c1cc(Nc2ncc(Cl)c(NCCCNC(=O)c3ccc(OC)cc3)n2)ccc1F [Example 40, N-(3-(5-chloro-2-(4-fluoro-3-(N-methylacrylamido)phenylamino)pyrimidinyl-4-amino)propyl)-4-methoxylbenzamide] | 0.02 | 4 | 0.46 | 89 | 82 | 39 | 0
C=CC(=O)N(C)c1cc(Nc2ncc(Cl)c(NCCCNC(=O)c3ccc(C#N)nc3)n2)ccc1F [Example 44, N-(3-(5-chloro-2-(4-fluoro-3-(N-methylacrylamido)phenylamino)pyrimidinyl-4-amino)propyl)-6-cyanonicotinamide] | 0.34 | 58 | 0.58 | 113 | 39 | 29 | 0
C=CC(=O)N(C)c1cc(Nc2ncc(Cl)c(NCCCNC(=O)c3ccc(O)cc3)n2)ccc1F [Example 48, N-(3-(5-chloro-2-(4-fluoro-3-(N-methylacrylamido)phenylamino)pyrimidinyl-4-amino)propyl)-4-hydroxybenzamide] | – | 0 | 0.56 | 109 | 90 | 50 | 0
C=CC(=O)N(C)c1cc(Nc2ncc(Cl)c(NCCCNC(=O)c3ccc(C#N)cc3F)n2)ccc1F [Example 52, N-(3-(5-chloro-2-(4-fluoro-3-(N-methylacrylamido)phenylamino)pyrimidinyl-4-amino)propyl)-4-cyano-2-fluorobenzamide] | 0.08 | 14 | 0.54 | 105 | 64 | 29 | 0
C=CC(=O)N(C)c1cc(Nc2ncc(Cl)c(NCCCNC(=O)c3ccc(C#N)c(F)c3)n2)ccc1F [Example 56, N-(3-(5-chloro-2-(4-fluoro-3-(N-methylacrylamido)phenylamino)pyrimidinyl-4-amino)propyl)-4-cyano-3-fluorobenzamide] | 0.05 | 9 | 0.59 | 116 | 60 | 30 | 0
C=CC(=O)N(C)c1cc(Nc2ncc(C)c(NCCCNC(=O)c3ccc(C#N)cc3)n2)ccc1F [Example 58, 4-cyano-N-(3-(2-(4-fluoro-3-(N-methylacrylamido)phenylamino)-5-methylpyrimidinyl-4-amino)propyl)benzamide] | 0.01 | 1 | 0.79 | 107 | 88 | 54 | 0
C=CC(=O)N(C)c1cc(Nc2ncc(F)c(NCCCNC(=O)c3ccc(C#N)cc3)n2)ccc1F [Example 60, 4-cyano-N-(3-(5-fluoro-2-(4-fluoro-3-(N-methylacrylamido)phenylamino)pyrimidinyl-4-amino)propyl)benzamide] | – | 0 | 0.79 | 106 | 94 | 79 | 0
